Measurements published in patent publication US7094759B2, “Oral modified SSP-5 antibacterial composition” (GC Corporation, priority 2003, dated 2006).

Legend:
Assay in all cases: Adhesion suppressing properties on saliva treatment sensor chip (BIAcore)
Settings in all cases: peptide solution 1 mg/mL in PBS pH7.4
S. mutans (ATCC25175) = assay type: binding, Streptococcus mutans
Experimental: (§1) S. sanguis (ATCC10556, ATCC10558), S. mutans (ATCC25175) were used as intraoral bacteria. All bacteria were cultured under an anaerobic conditions using Brain Heart Infusion broth (BHI; Difco Lavoratory, Detroit, Mich.) as a culture medium.
(§2) The specimen was stimulus saliva secreted by biting paraffine wax for 3 minutes by 3 subjects (A, B, C). The saliva was collected, incubated at 4° C. for 5 minutes, and centrifuged at 10000×g for 10 minutes at 4° C. Then, the supernatant was used the saliva specimen.
(§3) The adhesion suppressing properties of bacteria was confirmed by using a sensor chip as a substitute for a tooth. As the sensor chip, Pioneer Sensor Chip F1 (produced by BIAcore Company) was used. The sensor chip F1 was activated at flow speed of […] for 1 minute with 70 μL of 400 mM N-ethyl-N′-(3-diaethylaminoprophyl) carbodiimide and 100 mM N-hydroxy siccinimide solution. Then, the above saliva specimen was diluted 20 times, and bonded on the chip by passing 70 μL of sample over the activated chip. (Hereinafter, this chip was said to as a saliva treatment sensor chip)
The confirmation method of the adhesion suppressing properties by BIA core™ Biosensor system (produced by BIAcore Company) will be explained. […] Then, the bonding state (Response Unit:RU) between the bacteria and saliva on the surface of the sensor chip was measured. […]
Then, to the other saliva treatment sensor chip, which was different from the saliva treatment sensor chip adhered with bacteria, a modified SSP-5(390–402) peptide solution (1 mg/mL) dissolved with a phosphate buffer solution (PBS, pH7.4) was passed over the sensor chip at flow speed of 10 μL/min, and the surface of the saliva treatment sensor chip was treated with the peptide. Then, each bacteria was passed over the chip at 0.D.=1 (550 nm) and flow speed of 20 μL/min, and the bonding state (Response Unit:RU) between each bacteria and saliva on the sensor surface was measured. The final bacterium adhesion suppressing ratio by the peptide treatment was measured using the following formula 1. […]

S. sanguis (ATCC10558) = assay type: binding, Streptococcus sanguis
Experimental: as §1, §2, §3
(§4) The confirmation method of the adhesion suppressing properties by BIA core™ Biosensor system (produced by BIAcore Company) will be explained. First, each bacteria is passed over the saliva treatment sensor chip at 0.D.=1 (550 nm) and a flow speed of 20 μL/min. Then, the bonding state (Response Unit:RU) between the bacteria and saliva on the surface of the sensor chip was measured. The sensor chip was not carried out the peptide treatment.
(§5) Then, to the other saliva treatment sensor chip, which was different from the saliva treatment sensor chip adhered with bacteria, a modified SSP-5(390–402) peptide solution (1 mg/mL) dissolved with a phosphate buffer solution (PBS, pH7.4) was passed over the sensor chip at flow speed of 10 μL/min, and the surface of the saliva treatment sensor chip was treated with the peptide. Then, each bacteria was passed over the chip at 0.D.=1 (550 nm) and flow speed of 20 μL/min, and the bonding state (Response Unit:RU) between each bacteria and saliva on the sensor surface was measured. The final bacterium adhesion suppressing ratio by the peptide treatment was measured using the following formula 1. Adhesion suppressing ratio=100×{[Bonding state between bacteria and saliva (RU)]−[Bonding state between bacteria and saliva (after the peptide treatment) (RU)]}/[Bonding state between bacteria and saliva (RU)] [Formula 1]

S. sanguis (ATCC10556) = assay type: binding, Streptococcus sanguis
Experimental: as §1, §2, §3, §4, §5

Substance: modified SSP-5(390–402): Modified fragment (390–402) of Streptococcus sanguis surface protein SSP-5; position 400 (residue 11 of SEQ ID NO: 1) is threonine
- Adhesion suppressing ratio S. mutans (ATCC25175) (S. mutans (ATCC25175); saliva sample A): 55%
- Adhesion suppressing ratio S. mutans (ATCC25175) (S. mutans (ATCC25175); saliva sample B): 60%
- Adhesion suppressing ratio S. mutans (ATCC25175) (S. mutans (ATCC25175); saliva sample C): 58%
- Adhesion suppressing ratio S. sanguis (ATCC10558) (S. sanguis (ATCC10558); saliva sample A): 59%
- Adhesion suppressing ratio S. sanguis (ATCC10558) (S. sanguis (ATCC10558); saliva sample B): 63%
- Adhesion suppressing ratio S. sanguis (ATCC10558) (S. sanguis (ATCC10558); saliva sample C): 61%
- Adhesion suppressing ratio S. sanguis (ATCC10556) (S. sanguis (ATCC10556); saliva sample A): 61%
- Adhesion suppressing ratio S. sanguis (ATCC10556) (S. sanguis (ATCC10556); saliva sample B): 57%
- Adhesion suppressing ratio S. sanguis (ATCC10556) (S. sanguis (ATCC10556); saliva sample C): 65%
